The results in this text go back to patent EP4722217A1, “PYRIMIDO-PYRIDINE COMPOUND, PHARMACEUTICAL COMPOSITION THEREOF AND USE THEREOF” (Sunshine Lake Pharma Co., Ltd., priority 2023, dated 2025).

Type in all cases: cell-based
One assay relates to GP2D. Briefly: 3D-CTG proliferation inhibition of GP2D cells. To be noted: cell proliferation, read after the 8th day of incubation, read-out: GP2D, IC50 (nM) KRAS G12D. On the procedure: (§1) • (1) GP2D and HPAC cells were revived in DMEM medium containing 10% fetal bovine serum and used for experiments after the cells were recovered. • (2) On the first day, the cells were rinsed once with PBS, preheated trypsin was added, and the cells were placed in a 37 °C 5% CO2 incubator for 3-5 minutes. The digestion was terminated by adding an appropriate amount of complete culture medium (containing 10% fetal bovine serum), and the cells were transferred to a centrifuge tube and centrifuged at 1000 rpm for 5 minutes. • (3) The cells were resuspended in complete culture medium, counted, and adjusted to the appropriate cell concentration with complete culture medium. • (4) Using the ECHO 655 ultrasonic liquid handling system, 0.2 µl of the prepared 200× serial dilution compound (final DMSO concentration of 0.5%) was added to a 384-well plate. 40 µl of the cell suspension counted in step (3) was then added to each well and the plate was incubated in a 5% CO2 incubator at 37 °C. • (6) After the 8th day of incubation, 3D CTG detection reagent was added to each well. • (7) Signal values were read using Envision. • (8) Data analysis: • a) DMSO and culture medium were used to test the stability of the experimental method: • H = DMSO well • L = Culture medium well H, CV% (DMSOwell) = 100 × (SDvalueofDMSOwell/averagevalueofDMSOwell) [formula] L, CV% (correspondingculturemediumwell) = 100 × (SDvalueofculturemediumwell/average [formula] value of corresponding culture medium well) [formula] [formula] • b) IC50 values were fitted using the nonlinear regression equation in XLfit 5.5.0 software. Y = Bottom + (Top−Bottom)/(1+10^(∧)((LogIC50−X)*HillSlope)) [formula] • X: Log value of compound concentration • Y: Inhibition rate (% inh)

Assay [1] concerns pERK in KRAS G12D mutant cell line AGS. Briefly: Inhibitory effect on intracellular pERK by In-Cell Western Assay (384-well). To be noted: Homo sapiens; pERK inhibition, AGS cells, 3 h incubation; read-out: AGS, IC50 (nM) KRAS p.G12D. On the procedure: (7) The cells were fixed. (8) The cells were washed twice with PBS. (9) The blocking solution was added and the cells were incubated at room temperature for 1 h. […] (11) The cells were washed twice with PBST (PBS + 0.05% Tween 20) for 2 minutes each time.

In assay [2] the test system is pERK in KRAS G12D mutant cell line ASPC-1. Kind of assay: Inhibitory effect on intracellular pERK by In-Cell Western Assay (96-well). To be noted: Homo sapiens, ASPC1; pERK inhibition, ASPC-1 cells, 2 h incubation; read-out: ASPC-1, IC50 (nM) KRAS p.G12D. As to the method:
(2) On the first day, the following cells were revived with the corresponding culture medium and incubated in a 5% CO2 incubator at 37 °C until confluence:
(2) On the third day, the culture medium was removed, 2 mL of trypsin was added for digestion, and the cells were placed in an incubator until the cells detached. (3) 5 mL of fresh culture medium was added to resuspend the cells to terminate the digestion, and the cells were gently pipetted and centrifuged at 1000 rpm for 5 minutes at room temperature. (4) The supernatant was removed, and 5 mL of new culture medium was added to resuspend the cells and count them. (5) The cells were adjusted to the appropriate cell concentration with complete culture medium and plated in a 96-well plate. 90 µL of cells were added to each well, the cells were incubated in a 5% CO2 incubator at 37 °C overnight. (6) 10 µL of the prepared serial dilution compound (DMSO final concentration was 0.5%) was added and the cells were incubated in a 5% CO2 incubator at 37 °C for 2 h. (7) The supernatant was discarded, and 200 µL of 4% paraformaldehyde fixative was added to fix the cells. (8) The cells were washed three times with TBST. (9) The blocking solution was added and the cells were incubated at room temperature for 1 h. […]

In a further assay the test system is ASPC-1. Briefly: 3D-CTG proliferation inhibition of KRAS G12D mutant cells. To be noted: Homo sapiens, ASPC1, cell proliferation, read after the 7th day of incubation. As to the method:
(§2) (1) On the first day, the following cells were revived with the corresponding culture medium and incubated in a 5% CO2 incubator at 37 °C until confluence:
(§3) (2) On the second day, the cells were rinsed once with PBS, preheated trypsin was added, and the cells were placed in a 37 °C 5% CO2 incubator for digestion for 3~5 minutes. The digestion was terminated by adding an appropriate amount of complete culture medium (containing 10% fetal bovine serum), and the cells were transferred to a centrifuge tube and centrifuged at 1000 rpm for 5 minutes. (3) The cells were resuspended in complete culture medium, counted, and adjusted to the appropriate cell concentration with complete culture medium. (4) 90 µl/well of cell suspension was added to a 96-well plate and incubated in a 5% CO2 incubator at 37 °C overnight. (5) Each well was added with 10 µl of the prepared 10× serial dilution compound (final DMSO concentration was 0.5%) and incubated in a 37°C 5% CO2 incubator. (6) After the 7th day of incubation, 50 µl of 3D CTG detection reagent was added to each well and the cells were shaken at 350 rpm for 20 minutes. (7) Signal values were read using an enzyme meter. (8) Data analysis: IC50 values were fitted using the nonlinear regression equation in Graphpad software. […]

The test system of the next assay is Panc04.03. The assay is described as above. As to conditions: Homo sapiens, Panc 04.03, cell proliferation, read after the 7th day of incubation. As to the method: as §2, §3
In another assay the test system is HPAC. Briefly: 3D-CTG proliferation inhibition of HPAC cells. To be noted: Homo sapiens, read-out: IC50 (nM) KRAS G12D, Table D-2, titled HPAC, cell proliferation, read after the 8th day of incubation, read-out: GP2D, IC50 (nM) KRAS G12D. On the procedure: as §1, with “L, CV% (correspondingculturemediumwell) = 100 × (SDvalueofculturemediumwell/average [formula] value of corresponding culture medium well) [formula] [formula] • b) IC50 values were fitted using the nonlinear regression equation in XLfit 5.5.0 software. Y = Bottom + (Top−Bottom)/(1+10^(∧)((LogIC50−X)*HillSlope)) [formula] • X: Log value of compound concentration • Y: Inhibition rate (% inh)” left out

Turning to `C#Cc1c(F)ccc2cc(O)cc(-c3nc(C#CC)c4c(N5CC6CCC(C5)N6)nc(OCC56CCCN5CC(=C)C6)nc4c3F)c12` (centres unmarked) [Example 5], the IC50 with GP2D was found to be 0.07 nM.
The same measure, in the same setting: to `C=C1CN2CC(=C)CC2(COc2nc(N3CC4CCC(C3)N4)c3c(C#CC)nc(-c4cc(O)cc5ccc(F)c(CC)c45)c(F)c3n2)C1` [Example 9] belongs 0.19 nM.
Consider `C=C1CN2CC(=C)CC2(COc2nc(N3CC4CCC(C3)N4)c3c(C#CC)nc(-c4cc(N)cc(Cl)c4C(F)(F)F)c(F)c3n2)C1` [Example 10], for which the IC50 in the assay on GP2D amounted to 12.4 nM.
Regarding `C#Cc1c(F)ccc2cc(O)cc(-c3nc(C#C)c4c(N5CC6CCC(C5)N6)nc(OCC56CC(=C)CN5CC(=C)C6)nc4c3F)c12` [Example 6], in the assay with GP2D, the IC50 stood at 1.6 nM.
For `C#Cc1c(F)ccc2cc(O)cc(-c3nc(C#CC)c4c(N5CC6CCC(C5)N6)nc(OCC56CC(=C)CN5CC(=C)C6)nc4c3F)c12` [Example 2], the IC50 in assay [1] came to 0.4 nM; in assay [2], 0.86 nM; in the assay on ASPC-1, 0.42 nM; with Panc04.03 it was 0.85 nM; in the assay on GP2D, 0.17 nM; with HPAC, 0.77 nM.
For `C#Cc1c(F)ccc2cc(O)cc(-c3nc(C#CC)c4c(N5CC6CCC(C5)N6)nc(OCC56CCCN5CC(=CF)C6)nc4c3F)c12` (centres unmarked) [Example 11], in the assay on GP2D, the IC50 came out at 0.03 nM.
